Results taken from paper PMC10052474, “Carbon Fixation in the Chemolithoautotrophic Bacterium Aquifex aeolicus Involves Two Low-Potential Ferredoxins as Partners of the PFOR and OGOR Enzymes” (Life, 2023).

Experiments:
[1] = target: pyruvate:ferredoxin oxidoreductase (PFOR) of Aquifex aeolicus, five-subunit complex PORαβγδε (Aquifex aeolicus (endogenous in A. aeolicus VF5 cells)) (UniProt O67254); assay: native gel or EMSA; 3-12% Blue Native gel of elution fraction 2 of the Fd7Strep pull-down; in-gel PFOR and OGOR activity at roughly 300 kDa; proteins of the activity bands identified by mass spectrometry; for the self-association: dimer of the αβγδε protomer, from the estimated mass
[2] = target: 2-oxoglutarate:ferredoxin oxidoreductase (OGOR) of Aquifex aeolicus, five-subunit complex FORαβγδε (Aquifex aeolicus (endogenous in A. aeolicus VF5 cells)) (UniProt O67229); assay: as above
[3] = target: T1, Fd7Strep (recombinant ferredoxin 7) (Aquifex aeolicus, UniProt Z9T2O6C3G9); assay: EPR spectroscopy and UV-visible absorption; assay type: binding; settings: purified protein, dithionite-reduced, […] K
T1 construct: full length with C-terminal Strep-tag II, expressed in E. coli MG1655 ΔiscR; native protein 80 residues, apoprotein 9130 Da; native N-terminus […]
T1 sequence (Z9T2O6C3G9 1-80): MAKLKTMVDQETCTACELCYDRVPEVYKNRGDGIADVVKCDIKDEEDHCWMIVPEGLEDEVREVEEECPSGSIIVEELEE

[4] = target: T2, PFOR (pyruvate:ferredoxin oxidoreductase, Porαβγδε) (Aquifex aeolicus, UniProt O67254+O67255+O67256); assay: spectrophotometric methyl viologen reduction at […] nm, enriched fraction; in-gel activity; assay type: biochemical; settings: 10 mM pyruvate, 0.1 mM CoA, 0.2 mM TPP, 1 mM MgCl2, 5 mM methyl viologen, pH 8, 80 °C, anaerobic; decarboxylation direction
T2 construct: gene forA1; native, enriched from soluble fraction (DEAE step); dimer of pentamers (αβγδε)2, about 250-300 kDa; with pyruvate:ferredoxin oxidoreductase subunit epsilon (ferredoxin-like, Fd3); pyruvate:ferredoxin oxidoreductase subunit delta
T2 sequence (O67255 entry or part of it): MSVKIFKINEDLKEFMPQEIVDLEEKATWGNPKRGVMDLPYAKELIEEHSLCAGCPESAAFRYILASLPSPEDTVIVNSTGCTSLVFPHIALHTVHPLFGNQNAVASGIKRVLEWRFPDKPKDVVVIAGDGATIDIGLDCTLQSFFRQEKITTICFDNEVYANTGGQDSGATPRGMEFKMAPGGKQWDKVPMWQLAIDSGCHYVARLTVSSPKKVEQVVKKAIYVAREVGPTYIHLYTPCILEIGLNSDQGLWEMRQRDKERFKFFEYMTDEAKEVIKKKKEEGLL
T2 sequence (O67254 entry or part of it): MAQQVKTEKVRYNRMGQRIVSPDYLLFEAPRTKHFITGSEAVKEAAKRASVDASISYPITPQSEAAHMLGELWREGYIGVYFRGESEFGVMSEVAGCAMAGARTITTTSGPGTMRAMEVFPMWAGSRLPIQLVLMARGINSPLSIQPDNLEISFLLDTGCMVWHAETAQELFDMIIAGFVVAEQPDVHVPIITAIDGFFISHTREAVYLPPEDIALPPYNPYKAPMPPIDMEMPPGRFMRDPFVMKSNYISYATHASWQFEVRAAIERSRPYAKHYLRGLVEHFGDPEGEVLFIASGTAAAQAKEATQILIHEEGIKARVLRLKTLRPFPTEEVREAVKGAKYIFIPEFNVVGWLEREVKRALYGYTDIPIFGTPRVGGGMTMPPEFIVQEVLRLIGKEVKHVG
T2 sequence (O67256 entry or part of it): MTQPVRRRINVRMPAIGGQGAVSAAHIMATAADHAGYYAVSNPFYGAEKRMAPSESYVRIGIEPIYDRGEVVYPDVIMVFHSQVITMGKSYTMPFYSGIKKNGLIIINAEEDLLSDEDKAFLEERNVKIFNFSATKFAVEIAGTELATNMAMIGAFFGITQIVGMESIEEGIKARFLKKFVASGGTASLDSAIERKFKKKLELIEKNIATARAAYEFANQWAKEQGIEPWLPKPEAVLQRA
T2 sequence (O67251 whole entry, further chain): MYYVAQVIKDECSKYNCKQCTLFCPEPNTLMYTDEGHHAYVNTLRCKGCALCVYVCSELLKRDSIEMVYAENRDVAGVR
T2 sequence (O67252 entry or part of it, further chain): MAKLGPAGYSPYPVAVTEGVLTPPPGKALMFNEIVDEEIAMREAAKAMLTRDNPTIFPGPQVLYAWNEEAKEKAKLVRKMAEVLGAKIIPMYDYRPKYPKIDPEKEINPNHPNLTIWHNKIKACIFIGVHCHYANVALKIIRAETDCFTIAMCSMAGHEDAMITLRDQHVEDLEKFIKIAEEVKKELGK

[5] = target: T3, OGOR (2-oxoglutarate:ferredoxin oxidoreductase, Forαβγδε) (Aquifex aeolicus, UniProt O67229+O67230+O67231); assay: as above; assay type: biochemical; settings: 10 mM 2-oxoglutarate, 0.1 mM CoA, 0.2 mM TPP, 1 mM MgCl2, 5 mM methyl viologen, pH 8, 80 °C, anaerobic; decarboxylation direction
T3 construct: gene forA2; native, enriched from soluble fraction (DEAE, then Bio-Gel HTP); dimer of pentamers (αβγδε)2, about 250-300 kDa; Aq_1163 may co-migrate; with 2-oxoglutarate:ferredoxin oxidoreductase subunit epsilon (ferredoxin-like, Fd2); 2-oxoglutarate:ferredoxin oxidoreductase subunit delta
T3 sequence (O67229 1-389): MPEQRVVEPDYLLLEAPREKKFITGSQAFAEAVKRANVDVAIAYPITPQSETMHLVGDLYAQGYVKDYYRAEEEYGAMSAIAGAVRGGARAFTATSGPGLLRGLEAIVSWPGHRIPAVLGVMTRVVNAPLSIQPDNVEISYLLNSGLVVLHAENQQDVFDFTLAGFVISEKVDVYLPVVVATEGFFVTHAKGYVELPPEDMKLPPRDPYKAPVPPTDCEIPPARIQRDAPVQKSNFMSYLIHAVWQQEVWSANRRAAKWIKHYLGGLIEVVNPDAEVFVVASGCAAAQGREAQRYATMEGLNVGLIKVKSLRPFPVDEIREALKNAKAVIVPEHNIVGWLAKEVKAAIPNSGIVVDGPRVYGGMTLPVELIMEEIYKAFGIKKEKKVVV
T3 sequence (O67230 1-289): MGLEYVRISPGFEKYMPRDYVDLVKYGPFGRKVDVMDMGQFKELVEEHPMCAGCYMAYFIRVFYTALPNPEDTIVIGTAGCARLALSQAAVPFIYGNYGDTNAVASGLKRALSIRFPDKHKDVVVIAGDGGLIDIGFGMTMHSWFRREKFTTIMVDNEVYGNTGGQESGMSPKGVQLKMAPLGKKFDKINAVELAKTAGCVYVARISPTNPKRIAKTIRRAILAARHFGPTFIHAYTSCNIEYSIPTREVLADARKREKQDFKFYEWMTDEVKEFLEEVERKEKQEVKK
T3 sequence (O67231 1-230): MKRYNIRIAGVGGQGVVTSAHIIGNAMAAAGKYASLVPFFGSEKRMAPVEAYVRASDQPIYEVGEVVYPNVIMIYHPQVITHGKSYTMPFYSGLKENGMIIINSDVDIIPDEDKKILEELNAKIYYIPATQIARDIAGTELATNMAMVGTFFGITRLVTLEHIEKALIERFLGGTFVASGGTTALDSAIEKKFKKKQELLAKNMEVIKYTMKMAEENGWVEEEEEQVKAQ
T3 sequence (O67228 29-244 partner limits assumed): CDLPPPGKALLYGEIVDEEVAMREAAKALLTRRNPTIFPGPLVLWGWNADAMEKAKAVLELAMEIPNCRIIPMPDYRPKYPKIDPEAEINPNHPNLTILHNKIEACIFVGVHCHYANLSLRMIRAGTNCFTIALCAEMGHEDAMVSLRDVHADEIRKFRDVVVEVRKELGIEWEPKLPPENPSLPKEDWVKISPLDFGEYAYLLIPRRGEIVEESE
T3 sequence (O67232 whole entry partner): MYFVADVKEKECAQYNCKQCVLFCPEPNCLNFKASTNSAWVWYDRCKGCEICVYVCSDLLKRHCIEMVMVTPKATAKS

In the case of “pyruvate:ferredoxin oxidoreductase (PFOR) of Aquifex aeolicus, five-subunit complex PORαβγδε (from UniProt O67254 1-404; O67255 1-286; O67256 1-241; O67251 1-79; O67252 1-189)”, the stoichiometry N [1] is reported as 2.

Work on “2-oxoglutarate:ferredoxin oxidoreductase (OGOR) of Aquifex aeolicus, five-subunit complex FORαβγδε (from UniProt O67229 1-389; O67230 1-289; O67231 1-230; O67232 1-78; O67228 1-244)” yielded a stoichiometry N [2] of 2.

For `[S]12[Fe]3[S]4[Fe]1[S]1[Fe]2[S]3[Fe]41` [[4Fe-4S] cluster], the “EPR spectroscopy and UV-visible absorption” value [3] was “confirming the presence of one [4Fe-4S] center per Fd molecule”.

`CC(=O)C(=O)O` [pyruvate] was tested, and the “spectrophotometric methyl viologen reduction at 604 nm, enriched fraction; in-ge” value [4] was “pyruvate for PFOR and 2-oxoglutarate for OGOR”.

In the case of `O=C(O)CCC(=O)C(=O)O` [2-oxoglutarate], the “spectrophotometric methyl viologen reduction at 604 nm, enriched fraction; in-ge” value [5] is reported as “pyruvate for PFOR and 2-oxoglutarate for OGOR”.
